Assay results taken from patent US20250255847A1, “[…]s: Novel Drugs for Triple Negative Breast Cancer” (SIMMARON RSEARCH INC, priority 2024, published 2025).

Columns and labels:
[1] = system: STAT3-dependent tumor-promoting genes; assay: cDNA-based gene array of 66 STAT3-dependent genes in MDA-MB-468 cells; format: cell-based, human; conditions: 10 nM doses, EGF-stimulated MDA-MB-468
Protocol: FIG. 10 illustrates an embodiment of the present invention and illustrates SIM-1 and SIM-2 inhibit expressions of IL6, RANTES, and other STAT3-dependent tumor promoting genes and proteins. (A) A gene array of STAT3 dependent 66 genes (listed in Table 1) was performed in mRNA samples of MDA-MB-468 cells. Realtime PCR plate coated with 66 primer sets of STAT3-dependent genes was run for four conditions including control, EGF (25 ng/mL), EGF+SIM-1 (10 nM) and EGF+SIM-2 (10 nM). The resultant Ct value was normalized with four different housekeeping genes, and then summarized with a heatmap analyses drawn in Morpheus server of Broad Institute. […] (C) The cloning of STAT3 response element of IL6 promoter upstream of GFP reporter was performed by GeneCopoea genome editing service (Rockville, MD). The bit score map and sequence of consensus STAT3 response element or SEQ ID NO: 2 was shown below. […] After that live cells were recorded at Ex:Em=485/535 nm wavelength for GFP activity. […] (G) The GFP reporter activity was measured where the scrambled gene was cloned upstream of eGFP reporter. […]
Gene array. […] After that, mRNA was isolated using the Gene Jet RNA purification kit (Cat. #K0732), quantified by Bio-Rad Smart Spec™ plus spectrophotometer, converted to cDNA by GoScript™ CDNA synthesis kit, as per the manufacturer's instructions. […]

[2] = system: cell cycle genes in TNBC tumors; assay: Real-time PCR of cell cycle genes in PDX tumors; format: in vivo, mouse; conditions: tumor tissue
Protocol: FIG. 13 illustrates an embodiment of the present invention and illustrates the effects of SIM-1 and SIM-2 on the growth arrest of TNBC tumors. […] The higher magnification images were given below. (B) Area of 50 randomly selected cells (10 different images from n=5 mice/group) from three different groups were measured using polygon tool of ImageJ software and then the scatter histogram analysis was performed using GraphPad Prism 10 statistical software package. The significance of mean between groups (***p<0.001 versus control) was calculated by one-way ANOVA analysis (effector: treatment). (C) IHC staining of cell growth marker Ki-67 in vehicle-, SIM-1-, and SIM-2-treated tumors represents the cell growth property of tumor cells. […] Both hematoxylin-ir nuclei (total cells) and Ki-67-ir cells were counted in n=15 images per group, converted in percent scale, and then plotted as scatter histogram. ****p<0.0001 vs. control as derived by one-way ANOVA. (E) IHC staining of cell proliferation marker PCNA in three different groups. (F) Scatter histogram analysis of […] counted from n=15 images per group and then plotted as percent scale. […] (G) A gene array of 84 genes in a validated human breast cancer gene array (RT^2 Profiler™ PCR array; Cat #PAHS-131ZA; Qiagen) was conducted in cDNA samples extracted from TNBC tumors of vehicle, SIM-1- and SIM-2-treated (n=3) groups. The resultant gene expressions were converted in log scale and then compared with the vehicle in (G) SIM-1 and (H) SIM-2 treated groups as shown in scatter plots. […] (I) Validation of gene expressions of CCND1, CCND2, CCNE1, CDK2 genes were performed by real-time PCR analysis. (J) Upregulations of CDKN1A, and CDKN2A in SIM-1- and SIM-2-treated groups were validated by real-time PCR analyses. were Significance of mean calculated by one-way ANOVA resulted […] versus respective vehicle-groups. The results are confirmed after three different experiments.
To assess the histopathological changes in tumor parenchyma, H&E staining of tumor tissue was performed in three different groups (FIG. 13A). The hematoxylin-stained cells appeared with enlarged and densely colored nuclei characteristic of growing and mitotic tumor cells. […] The result was further corroborated with the quantitative analyses of cell size (FIG. 13B). […] To further confirm, we performed a gene array with a validated RNA array kit (Qiagen) of genes that are involved in the growth and proliferation of breast cancer cells. Relative expressions of different genes were summarized by heatmap clusterogram analyses (FIG. 14D).

| Structure (SMILES) | expressions of tumor-promoting factors, inflammatory cytokine, metastatic and anti-apoptotic genes (AKT, IL6, RANTES, MMPs, Cyclin D1, Bcl-2 etc.) [1] | expression of CCND1, CCND2, CCNE1 and CDK2 (real-time PCR) [2] | expression of CDKN1A and CDKN2A (real-time PCR) [2] |
| --- | --- | --- | --- |
| O=C(O)CCC(=O)NCc1csc2ccc(Cl)cc12 [SIM-1, 4-[(5-chloro-1-benzothiophen-3-yl)methylamino]-4-oxobutanoic acid] | strongly attenuated | strongly suppressed | significantly induced |
| CCOC(=O)c1c(NC(C)=O)sc2c(Cl)c(/C=N/O)ccc12 [SIM-2, ethyl 2-acetamido-7-chloro-6-(hydroxyiminomethyl)-1-benzothiophene-3-carboxylate] | strongly attenuated | strongly suppressed | significantly induced |
